In the test the test system is Brassica napus. Kind of test: Drought stress test on crop plants in greenhouse, spray application, efficacy vs untreated stressed control. As to conditions: dosage 25 g/ha, mean of three results. It counts as in vivo. The procedure: Seeds of monocotyledonous and dicotyledonous crop plants were laid out in sandy loam in wood-fiber pots, covered with soil and cultivated in a greenhouse under good growth conditions. The test plants were treated at the early leaf stage (BBCH10-BBCH13). To ensure uniform water supply before commencement of stress, the potted plants were supplied with the maximum amount of water immediately beforehand by dam irrigation and, after application, transferred in plastic inserts in order to prevent subsequent, excessively rapid drying. The inventive compounds, formulated in the form of wettable powders (WP), wettable granules (WG), suspension concentrates (SC) or emulsion concentrates (EC), were sprayed onto the green parts of the plants as an aqueous suspension at an equivalent water application rate of 600 l/ha with addition of 0.2% wetting agent (agrotin). Substance application is followed immediately by stress treatment of the plants (cold or drought stress). […]
After the recovery phase had ended, the intensities of damage were rated in visual comparison to untreated, unstressed controls of the same age (in the case of drought stress) or the same growth stage (in the case of cold stress). The intensity of damage was first assessed as a percentage (100%=plants have died, 0%=like control plants). […]

For `CCOC(=O)/C=C(/C)C#CC1(O)C(C)=CC(=O)C2CC21C` (centres unmarked) [I.1-394, Ethyl (2Z)-5-(2-hydroxy-1,3-dimethyl-5-oxobicyclo[4.1.0]hept-3-en-2-yl)-3-methylpent-2-en-4-ynoate], where the note is “BRSNS as printed”, the “EF (BRSNS): efficacy, percentage reduction in the intensity of damage (second table headed TABLE A-1)” value was >5%. In addition, the “EF (BRSNS): efficacy, percentage reduction in the intensity of damage” value (Brassica napus) is reported as >5%.

These data come from US20140051577A1, “SUBSTITUTED 5-(BICYCLO[4.1.0]HEPT-3-EN-2-YL)PENTA-2,4-DIENES AND 5-(BICYCLO[4.1.0]HEPT-3-EN-2-YL)PENT-2-ENE-4-INES AS ACTIVE AGENTS AGAINST ABIOTIC STRESSES IN PLANTS” (priority 2011, published 2014).
